Data from patent US9994915B2, “miR-211 expression and related pathways in human melanoma” (Sanford-Burnham Medical Research Institute, priority 2010, dated 2018).

How the values were obtained:
Assay type in all cases: cell-based, human
A375 melanoma cells = test: cell proliferation (cell counts) of A375 lines; conditions: A375/211
Procedure: The over-expression of KCNMA1 is often associated with both cell proliferation and cell migration/invasion in various cancers. Therefore, the effects of depletion of miR-211 and associated over-expression of KCNMA1 on these process in melanoma cells were determined. Proliferation rates of melanoma cell lines stably transfected with the miR-211 expression cassette were compared with those of untransfected melanoma cells and cell lines transfected with the empty expression vector (FIG. 8A), respectively.
Assays were performed using WM1552C, WM1552C/VO, WM1552C/211(400), WM1552C/211(800), A375, A375/VO, and A375/211 cell lines. Cells were grown in log phase, trypsinized, counted using an automated cell counter (Cellometer®, Nexcelom Bioscience), and then seeded into 75 cm^2 flasks at 5×10^5 cells per flask (in triplicate). Media was changed after 6 hours, and cells were further fed every 48 hours (Complete Tu Media). At days 4, 10, 15, and 21, cells were trypsinized, counted (Cellometer®, Nexcelom Bioscience), and then reseeded. Each assay was performed in duplicate for all cell lines.

KCNMA1 protein = test: western blot of KCNMA1 protein in WM1552C lines; conditions: stably transfected WM1552C lines
Procedure: qRT-PCR analyses were then run to determine whether the induced expression of miR-211 in melanoma cells could reduce KCNMA1 transcript levels. […] To further address whether KCNMA1 mRNA levels reflected KCNMA1 protein expression, a western blot analysis was performed looking for KCNMA1 in cell extracts obtained from: 1) WM1552C, 2) WM1552C/VO (WM1552C cells with a stably-incorporated empty expression vector), 3) WM1552C/211(400), 4) WM1552C/211(800), and 5) WM1552C/KC KO (WM1552C cells with a stably-expressing shRNA against the KCNMA1 mRNA) (FIG. 6C). […] To further confirm our observations, we measured the correlation between miR-211 expression and KCNMA1 protein levels (FIG. 6D). […] To confirm that this expression correlation occurred in non-transformed cells in addition to cancerous cell lines, the effect of miR-211 inhibition on the expression of KCNMA1 in melanocytes was examined. Melanocytes were transfected with anti-miR-211 inhibitors (Exiqon) and the protein expression of KCNMA1 was measured. […]
2.5×10^5 cells WM1552C/211(800) cells were seeded into wells of a 6-well plate. […] After 48 hours, the cells were harvested by trypsinization and counted using an automated cell counter (Cellometer®, Nexcelom Bioscience). […]
A KCNMA1 constitutively-expressing plasmid was transiently transfected into WM1552C/211(800) cells. […] KCNMA1 protein expression levels were then detected by KCNMA1 antibody. […]

KCNMA1 transcript = test: qRT-PCR of KCNMA1 transcript in WM1552C lines; conditions: WM1552C/211(400)
Procedure: Expression levels of all statistically significant and differentially expressed mRNAs and miRNAs were confirmed by qRT-PCR using TaqMan® expression kits (Applied Biosystems) using multiple technical and biological replicates. GAPDH was used as the internal reference probe for normalization of expression values of mRNA, and RNU48 was used for normalization of miRNA. RNA analysis by Northern blots used 20 μg of total RNA concentrated from each sample (melanoma cell lines and melanocytes), separated on 15% urea denaturing polyacrylamide gels by electrophoresis. Gels were electroblotted to nylon membranes, cross-linked by UV, prehybridized in ULTRAhyb®-Oligo (Ambion) for 30 minutes at 42° C., and hybridized with 5′-biotinylated anti-miRNA DNA oligonucleotides (100 nM each) at 42° C. overnight, washed, and detected by chemiluminescence (Brightstar® detection kit, Ambion). Anti-U6 probes were used as a reference control (at 10 pM).
qRT-PCR analyses were then run to determine whether the induced expression of miR-211 in melanoma cells could reduce KCNMA1 transcript levels. […] To further confirm our observations, we measured the correlation between miR-211 expression and KCNMA1 protein levels (FIG. 6D). […] Melanocytes were transfected with anti-miR-211 inhibitors (Exiqon) and the protein expression of KCNMA1 was measured.

IGFBP5 mRNA = test: Next Gen sequencing of IGFBP5 mRNA in WM1552C cells
Procedure: To extend the findings of the MITF knock-down study and to further establish IGFBP5 as a miR-211 target, the effect of miR-211 expression on IGFBP5 mRNA was determined. WM1552C cells were transfected with either an empty vector or the vector encoding and expressing miR-211. Additionally, untransfected WM1552C cells were treated with 5-Aza-2′deoxycytidine (“5-Aza”) to investigate whether miR-211 down-regulates IGFBP5 mRNA production through a genomic methylation mechanism.

A375 cells [1] = test: cell counts in hypoxic chamber (2% O2), A375/211; conditions: A375/211 cells, hypoxic chamber 2% O2 (parental A375 about 68%)
Excerpt: To test under actual hypoxic conditions, both cell lines were placed into a hypoxic chamber containing 2% O2 prior to determination of cell counts. […] As in the DFO-simulated hypoxic condition assay, the presence of miR-211 caused the effect to be greatly exacerbated, reducing survival to about 29%.

A375 cells [2] = test: abundance of mitochondria, MitoTracker; conditions: miR-211-expressing cells
[3] = test system: hypoxia-inducible factor 1 alpha (HIF-1α); test: level of HIF-1α in miR-211-expressing cells
Procedure: Deep-sequencing (RNA-seq) and proteomics (mass spectrometry) data from two melanoma cell lines A375 and W[…], each expressing miR-211 or the empty vector, were generated. […] Energy consumption was investigated in miR-211-expressing cells. Using the Seahorse XF96 Analyzer, it was determined that miR-211-expressing melanoma cells (A375) consumed nearly double the amount of oxygen as control cells expressing the empty vector (FIG. 35). […] Finally, we measured the level of hypoxia-inducible factor 1 alpha (HIF-1α) in miR-211-expressing cells. HIF-1α expression was reduced by miR-211 expression which is an indication of cellular respiration changes (FIG. 37).

Substance: miR-211: pre-miR-211 sequence stably expressed from plasmid pcDNA4/miR-211 in melanoma cells; mature sequence UUCCCUUUGUCAUCCUUCGCCU (SEQ ID NO: 15) (listed as Homo sapiens)
- cell proliferation compared to untransfected A375 or A375/VO (A375 melanoma cells): grew more slowly
- KCNMA1 protein levels compared to WM1552C/VO or untransfected WM1552C (KCNMA1 protein): significantly reduced
- KCNMA1 transcript expression vs wild type WM1552C (KCNMA1 transcript): down-regulates
- IGFBP5 mRNA expression (IGFBP5 mRNA): almost to undetectably levels
- survival vs normoxic condition cells (A375 cells [1]): about 29%
- number of mitochondria vs empty vector-expressing cells (A375 cells [2]): higher number of mitochondria
- HIF-1α expression [3]: reduced
